Reference: BindingDB's records for patent US12371428 (Exelixis, 2025)

Assays:
[1] = target: Hepatocyte growth factor receptor (Homo sapiens, UniProt P08581); test: Human Met Kinase Assay
Procedure: Example D-1: Human Met (residues R974-S1390 with A1209G and V1290L, 3.4 nM) was incubated with 8 mM MOPS pH 7.0, 0.2 mM EDTA, 250 µM […] (SEQ ID NO:3), 1 mM sodium orthovanadate, 5 mM […], 10 mM magnesium acetate, and 10 μM [γ-33P-ATP]. The reaction was initiated by the addition of the Mg/ATP mix. After incubation for 40 minutes at room temperature, the reaction was stopped by the addition of phosphoric acid to a concentration of 0.5%. A reaction aliquot of 10 μL was then spotted onto a P30 filtermat and washed four times for 4 minutes in 0.425% phosphoric acid and once in methanol prior to drying and scintillation counting. Incorporated 33P was measured using the Wallac Microbeta scintillation counter (Perkin Elmer).Example D-2: Human MET (residues 956-1390; CarnaBio, 0.1 ng/well) was also incubated with enzymatic buffer (Cisbio) supplemented with 5 mM MgCl2, 1 mM DTT and 1 mM MnCl2. The mixture was added to the pre-plated compounds. […] The reaction was incubated at room temperature for 40 min and stopped upon the addition of SA-XL665 and TK-antibody both diluted in EDTA-containing kinase detection buffer (Cisbio). The kinase activity was calculated as stated above and the IC50 values were reported.

[2] = target: T1, Tyrosine-protein kinase Mer (Homo sapiens, UniProt Q12866); test: Human Mer Kinase Assay
T1 sequence (Q12866 whole entry): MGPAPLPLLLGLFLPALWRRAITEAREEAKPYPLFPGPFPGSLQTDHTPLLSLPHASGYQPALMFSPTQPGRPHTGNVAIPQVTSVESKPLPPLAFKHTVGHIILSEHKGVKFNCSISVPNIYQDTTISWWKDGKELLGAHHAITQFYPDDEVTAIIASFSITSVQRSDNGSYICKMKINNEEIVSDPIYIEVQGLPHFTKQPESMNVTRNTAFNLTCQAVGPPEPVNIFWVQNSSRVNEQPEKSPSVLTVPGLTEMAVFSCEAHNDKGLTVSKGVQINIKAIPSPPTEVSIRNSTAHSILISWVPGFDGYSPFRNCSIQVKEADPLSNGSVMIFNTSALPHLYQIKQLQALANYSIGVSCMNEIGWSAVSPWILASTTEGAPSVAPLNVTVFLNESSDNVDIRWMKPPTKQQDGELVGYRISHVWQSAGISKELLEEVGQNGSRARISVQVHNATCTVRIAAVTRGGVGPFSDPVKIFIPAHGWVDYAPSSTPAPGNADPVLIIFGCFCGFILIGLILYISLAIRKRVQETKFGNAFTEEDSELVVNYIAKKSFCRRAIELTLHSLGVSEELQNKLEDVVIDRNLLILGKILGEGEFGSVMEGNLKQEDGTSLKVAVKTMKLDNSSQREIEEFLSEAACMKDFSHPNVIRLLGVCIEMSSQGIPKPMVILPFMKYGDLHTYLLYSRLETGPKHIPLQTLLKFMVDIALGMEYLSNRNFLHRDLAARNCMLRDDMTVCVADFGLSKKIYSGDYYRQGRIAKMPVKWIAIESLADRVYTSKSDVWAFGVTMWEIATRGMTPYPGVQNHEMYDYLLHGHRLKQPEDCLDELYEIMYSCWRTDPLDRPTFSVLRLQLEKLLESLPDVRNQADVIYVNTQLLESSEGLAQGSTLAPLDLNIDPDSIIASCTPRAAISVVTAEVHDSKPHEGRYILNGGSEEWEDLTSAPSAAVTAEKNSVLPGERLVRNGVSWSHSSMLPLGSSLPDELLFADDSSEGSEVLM
Procedure: Example C-1: Human Mer (residues R557-E882 with H628Q and R794A, 0.7 nM) was incubated with 8 mM MOPS pH 7.0, 0.2 mM EDTA, 30 mM NaCl, 250 μM […] (SEQ ID NO:2), 10 mM magnesium acetate, and 10 μM [γ-33P-ATP]. The reaction was initiated by the addition of the Mg/ATP mix. After incubation for 40 minutes at room temperature, the reaction was stopped by the addition of phosphoric acid to a concentration of 0.5%. A reaction aliquot of 10 μL was then spotted onto a P30 filtermat and washed four times for 4 minutes in 0.425% phosphoric acid and once in methanol prior to drying and scintillation counting. Incorporated 33P was measured using the Wallac Microbeta scintillation counter (Perkin Elmer).Example C-2: Human MER (residues 528-999; CarnaBio, 1 ng/well) was also incubated with enzymatic buffer (Cisbio) supplemented with 5 mM MgCl2 and 1 mM DTT. The mixture was added to the pre-plated compounds. The reaction was initiated upon addition of ATP at Km (40 μM). The reaction was incubated at room temperature for 60 min and stopped upon the addition of SA-XL665 and TK-antibody both diluted in EDTA-containing kinase detection buffer (Cisbio). The kinase activity was calculated as stated above and the IC50 values were reported.

[3] = target: Vascular endothelial growth factor receptor 2 (Homo sapiens, UniProt P35968); test: Human KDR Kinase Assay
Chain of Vascular endothelial growth factor receptor 2 (P35968 whole entry, the tested form may be a part): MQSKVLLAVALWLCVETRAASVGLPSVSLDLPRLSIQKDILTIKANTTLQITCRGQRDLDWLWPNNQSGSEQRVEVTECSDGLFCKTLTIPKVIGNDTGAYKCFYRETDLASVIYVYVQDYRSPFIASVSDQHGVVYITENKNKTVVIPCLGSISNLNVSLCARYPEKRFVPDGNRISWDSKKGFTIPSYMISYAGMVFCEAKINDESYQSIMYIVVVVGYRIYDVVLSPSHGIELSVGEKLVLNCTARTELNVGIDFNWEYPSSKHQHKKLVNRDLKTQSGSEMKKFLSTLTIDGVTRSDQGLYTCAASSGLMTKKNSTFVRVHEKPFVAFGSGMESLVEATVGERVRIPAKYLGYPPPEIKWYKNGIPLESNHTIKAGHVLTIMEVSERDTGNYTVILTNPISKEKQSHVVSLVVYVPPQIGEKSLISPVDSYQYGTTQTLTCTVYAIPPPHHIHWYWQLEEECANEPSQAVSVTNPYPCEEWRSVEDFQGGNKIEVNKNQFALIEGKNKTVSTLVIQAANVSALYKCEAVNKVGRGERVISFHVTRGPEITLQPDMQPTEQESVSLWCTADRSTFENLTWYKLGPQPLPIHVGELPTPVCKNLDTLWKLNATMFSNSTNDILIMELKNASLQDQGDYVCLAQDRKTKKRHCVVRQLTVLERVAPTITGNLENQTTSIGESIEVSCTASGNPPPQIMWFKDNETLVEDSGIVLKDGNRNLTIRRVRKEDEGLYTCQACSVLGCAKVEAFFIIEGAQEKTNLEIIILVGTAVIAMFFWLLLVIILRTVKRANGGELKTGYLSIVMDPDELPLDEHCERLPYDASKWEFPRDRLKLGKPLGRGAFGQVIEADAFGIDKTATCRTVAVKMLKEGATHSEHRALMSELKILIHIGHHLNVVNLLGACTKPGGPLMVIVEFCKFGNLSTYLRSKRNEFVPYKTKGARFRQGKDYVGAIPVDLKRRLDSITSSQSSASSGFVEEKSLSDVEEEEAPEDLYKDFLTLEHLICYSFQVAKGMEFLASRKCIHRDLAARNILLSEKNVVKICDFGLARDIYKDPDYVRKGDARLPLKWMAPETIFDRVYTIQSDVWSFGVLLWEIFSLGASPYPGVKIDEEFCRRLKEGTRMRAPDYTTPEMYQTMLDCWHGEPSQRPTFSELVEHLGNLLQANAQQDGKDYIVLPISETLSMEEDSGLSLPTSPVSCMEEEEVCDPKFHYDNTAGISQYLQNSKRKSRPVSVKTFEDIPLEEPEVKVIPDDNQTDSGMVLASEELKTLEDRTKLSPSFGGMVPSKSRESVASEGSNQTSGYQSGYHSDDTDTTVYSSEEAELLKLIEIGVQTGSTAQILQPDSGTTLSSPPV
Procedure: Example B-1: Human KDR (residues K790-V1356, 55 nM) was incubated with 8 mM MOPS pH 7.0, 0.2 mM EDTA, 0.33 mg/mL myelin basic protein, 10 mM magnesium acetate, and 10 μM [γ-33P-ATP]. The reaction was initiated by the addition of the Mg/ATP mix. After incubation for 40 minutes at room temperature, the reaction was stopped by the addition of phosphoric acid to a concentration of 0.5%. A reaction aliquot of 10 μL was then spotted onto a P30 filtermat and washed four times for 4 minutes in 0.425% phosphoric acid and once in methanol prior to drying and scintillation counting. Incorporated 33P was measured using the Wallac Microbeta scintillation counter (Perkin Elmer).Example B-2: Human KDR (residues 790-1356; CarnaBio, 0.1 ng/well) was also incubated with enzymatic buffer (Cisbio) supplemented with 5 mM MgCl2, 1 mM MnCl2, and 1 mM DTT. The mixture was added to the pre-plated compounds. The reaction was initiated upon addition of ATP at Km (4.0 μM). The reaction was incubated at room temperature for 40 min and stopped upon the addition of SA-XL665 and TK-antibody both diluted in EDTA-containing kinase detection buffer (Cisbio). The kinase activity was calculated as stated above and the IC50 values were reported.

Measured: IC50

Chain of Hepatocyte growth factor receptor (P08581 whole entry, the tested form may be a part): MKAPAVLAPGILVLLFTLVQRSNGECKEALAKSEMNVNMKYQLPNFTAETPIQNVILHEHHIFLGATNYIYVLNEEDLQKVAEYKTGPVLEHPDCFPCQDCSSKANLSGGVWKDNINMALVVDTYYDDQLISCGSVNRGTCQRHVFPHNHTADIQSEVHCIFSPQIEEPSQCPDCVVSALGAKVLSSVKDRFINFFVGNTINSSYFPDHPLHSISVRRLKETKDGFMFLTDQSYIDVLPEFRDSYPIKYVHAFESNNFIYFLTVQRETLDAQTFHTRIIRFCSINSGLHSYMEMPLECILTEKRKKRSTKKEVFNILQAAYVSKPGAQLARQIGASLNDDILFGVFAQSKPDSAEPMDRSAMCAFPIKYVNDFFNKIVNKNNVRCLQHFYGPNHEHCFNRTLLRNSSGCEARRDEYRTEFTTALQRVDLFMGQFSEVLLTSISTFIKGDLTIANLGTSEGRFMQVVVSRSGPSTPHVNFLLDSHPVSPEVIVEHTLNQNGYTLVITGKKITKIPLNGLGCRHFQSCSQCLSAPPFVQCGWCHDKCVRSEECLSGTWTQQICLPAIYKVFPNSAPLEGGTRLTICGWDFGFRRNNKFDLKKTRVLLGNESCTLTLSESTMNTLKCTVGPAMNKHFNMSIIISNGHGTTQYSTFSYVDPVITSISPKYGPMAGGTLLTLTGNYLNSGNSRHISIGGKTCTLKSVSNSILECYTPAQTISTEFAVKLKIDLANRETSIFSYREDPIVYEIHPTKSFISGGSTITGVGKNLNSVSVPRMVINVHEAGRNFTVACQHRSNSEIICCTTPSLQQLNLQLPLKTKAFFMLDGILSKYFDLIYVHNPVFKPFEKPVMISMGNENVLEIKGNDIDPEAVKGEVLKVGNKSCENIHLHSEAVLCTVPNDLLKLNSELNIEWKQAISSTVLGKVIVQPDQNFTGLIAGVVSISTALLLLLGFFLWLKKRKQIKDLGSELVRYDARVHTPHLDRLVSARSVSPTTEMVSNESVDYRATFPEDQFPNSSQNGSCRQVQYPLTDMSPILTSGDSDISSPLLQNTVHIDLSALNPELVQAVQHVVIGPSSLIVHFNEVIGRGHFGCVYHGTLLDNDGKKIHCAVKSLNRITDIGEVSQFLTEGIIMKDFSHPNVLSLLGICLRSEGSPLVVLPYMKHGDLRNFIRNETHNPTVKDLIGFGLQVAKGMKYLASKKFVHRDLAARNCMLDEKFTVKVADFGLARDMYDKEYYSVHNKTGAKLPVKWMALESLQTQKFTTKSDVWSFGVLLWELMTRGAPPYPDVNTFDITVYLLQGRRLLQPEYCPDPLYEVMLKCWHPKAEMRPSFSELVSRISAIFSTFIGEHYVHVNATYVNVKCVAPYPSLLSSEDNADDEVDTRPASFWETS

COCCOc1ccc2nccc(Oc3ccc(NC(=O)C4=C(C)N=C(C)C(c5ccc(F)cc5)C4O)cc3F)c2n1 (stereo unspecified) [US12371428, Compound 349]
< 100 nM: all assays above

COc1cc2nccc(Oc3ccc(NC(=O)C4C(=O)C(c5ccc(F)cc5)=C(C)N=C4C)cc3F)c2nc1OC (stereo unspecified) [US12371428, Compound 154]
< 100 nM: all assays above
